Experimental findings from patent US7226730B1, “Transgenic animals and cell lines for screening drugs effective for the treatment or prevention of Alzheimer's Disease” (The General Hospital Corporation, priority 1997, dated 2007) are described below.

The assay concerns CYZ neuronal cells stably transfected with AD7c-NTP. Briefly: Crystal Violet viability assay in IPTG-induced AD7c-NTP expressing neuronal cells. The conditions noted are these: for effect on cell death (percent change in viability, induced over uninduced) / effect on nitric oxide synthase toxicity attributable to AD7c-NTP expression: CYZ cells induced to express AD7c-NTP, FIG. 12; for cell viability under oxidative stress toxins: LacB and LacF cells, 3 mM IPTG 24 or 48 hrs, toxin 6 or 24 hrs, vs LacA-control, FIGS. 10A and 10B.

Method: AD7c-NTP was cloned into a Lac-Switch expression vector (Stratgene), and CYZ neuronal cells were stably transformed with the construct. Several cell lines were selected that expressed AD7c-NTP at various levels, Lac A-Lac F, after induction of protein expression with IPTG.
Briefly, 10^4 cells/well were seeded into 96-well plates, and were induced to express AD7c-NTP for a period of 6–18 hrs; additionally, in some experiments, cells were exposed to toxins or protective agents for a similar period of time. At the end the treatment period, cells were fixed, permeabilized and immunostained with the appropriate antibody following the ABS procedure. Quantitation was done by incubating cells with a soluble chromagen, stopping the reaction with 2M H2SO4 and determining chromagen absorbance in an automated ELISA reading machine.
For Experiments determining cell viability, after culture and treatment as for the MICE assay, culture media was replaced with a Crystal Violet/PBS/formalin solution. After staining, cells were rinsed thoroughly and lysed with a PBS/1% SDS solution, and absorbance was determined with an automated ELSA reader. Results were graphed as percent viability.

Take `OO` [Hydrogen peroxide]: the “effect on cell death (percent change in viability, induced over uninduced)” value is recorded as “exacerbate cell death” and the “cell viability under oxidative stress toxins” value is reported as “increased hypersensitivity”.
Consider `COC(=O)[C@@H](N)CCCNC(=N)N[N+](=O)[O-]` [L-NAME], for which the “effect on nitric oxide synthase toxicity attributable to AD7c-NTP expression” value is recorded as “inhibit or reduce”.
On the same count and under the same terms, the same measure for `N=C(N)NCCC[C@H](N)C(=O)O` [L-arginine]: “inhibit or reduce”.
On to `CCN(CC)C(=S)S` [diethyldithiocarbamic acid], for which the “effect on cell death (percent change in viability, induced over uninduced)” value is listed as “exacerbate cell death” and the “cell viability under oxidative stress toxins” value was “increased hypersensitivity”.
